In US6864249B2, “Piperidine and azetidine thrombin inhibitors” (LG Life Sciences, Ltd., priority 1998, dated 2005) one finds Ki data, which are given here for 24 molecules.

Structures can show the parent of a compound that is named as a salt.

The assay addresses T1, Thrombin prepared from human plasma (Homo sapiens, UniProt P00734).
T1 construct: Thrombin used in this test was prepared from human plasma; from tissue; host or cells: human plasma
Description: In vitro enzyme assay for thrombin inhibition constants (Chromozym TH substrate, Dixon plot). The following applies: pH 7.8, room temperature. Format: biochemical. Here is the method:
In vitro Enzyme Assays for Determining Inhibition Constants
The activity of thrombin was measured spectrophotometrically using tosyl-Gly-Pro-Arg-p-nitroanilide acetate (Chromozym TH, Boehringer Mannheim) as a substrate. […] Each compound was dissolved in DMSO to make a 1 mM stock solution and dilutions were made thereof with assay buffer (0.1 M Tris HCl, 0.15 M NaCl, 0.1% polyethylene glycol 8000, pH 7.8). Different concentrations of inhibitor were mixed with […] of thrombin in 0.8 mL of the buffer. The mixture was incubated for 10 min at room temperature before adding 0.2 mL of the substrate to a final concentration of 20 μM. […] A graph for the reciprocal value of initial velocity to the inhibitor concentration was derived from progress curves by fitting the data using a linear regression program.
In general, Ki refers to a measure of affinity in units of concentration, obtained from inhibition or displacement. Lower therefore signals higher affinity. Take `NCc1ccc(CNC(=O)[C@@H]2CCCN2C(=O)[C@H](NS(N)(=O)=O)C(c2ccccc2)c2ccccc2)s1` [Example 2, N-aminosulfonyl-D-diphenylalanyl-L-prolyl-[(5-aminomethyl-2-thienyl)methyl]amide.HCl]: the affinity corresponds to a Ki of 4.7 nM.

Molecule `CS(=O)(=O)N[C@@H](C(=O)N1CCC[C@H]1C(=O)NCc1ccc(/C(N)=N/N)s1)C(c1ccccc1)c1ccccc1` [Example 4, N-methylsulfonyl-D-diphenylalanyl-L-prolyl-[(5-amidrazono-2-thienyl)methyl]amide.TFA] had a Ki of 0.53 nM. Regarding `N=C(N)c1ccc(CNC(=O)[C@@H]2CCCN2C(=O)[C@H](NS(=O)(=O)Cc2ccccc2)C(c2ccccc2)c2ccccc2)s1` [Example 6, N-benzylsulfonyl-D-diphenylalanyl-L-prolyl-[(5-amidino-2-thienyl)methyl]amide.TFA], the inhibition constant Ki was 0.021 nM. With `CC(C)(C)OC(=O)N[C@@H](C(=O)N1CCC[C@H]1C(=O)NCc1ccc(C(=N)N)s1)C(c1ccccc1)c1ccccc1` [Example 7, N-t-butoxycarbonyl-D-diphenylalanyl-L-prolyl-[(5-amidino-2-thienyl)methyl]amide.TFA], the Ki was found to be 0.007 nM. Then `N=C(N)c1ccc(CNC(=O)[C@@H]2CCCN2C(=O)[C@@H](Cc2ccc(Cl)c(Cl)c2)NS(N)(=O)=O)s1` [Example 9, N-aminosulfonyl-D-3,4-dichlorophenylalanyl-L-prolyl-[(5-amidino-2-thienyl)methyl]amide.TFA], with 0.065 nM; and `COC(=O)N[C@@H](C(=O)N1CCC[C@H]1C(=O)NCc1ccc(C(=N)N)s1)C(C1CCCCC1)C1CCCCC1` [Example 10, N-methoxycarbonyl-D-dicyclohexylalanyl-L-prolyl-[(5-amidino-2-thienyl)methyl]amide.TFA], with 0.052 nM. In the case of `CS(=O)(=O)N[C@@H](C(=O)N1CCC[C@H]1C(=O)NCc1cc(C(=N)N)cs1)C(c1ccccc1)c1ccccc1` [Example 12, N-methylsulfonyl-D-diphenylalanyl-L-prolyl-[(4-amidino-2-thienyl)methyl]amide.TFA], the affinity corresponds to a Ki of 0.04 nM. In turn, `CS(=O)(=O)N[C@@H](C(=O)N1CCC[C@H]1C(=O)NCc1cc(CN)cs1)C(c1ccccc1)c1ccccc1` [Example 13, N-methylsulfonyl-D-diphenylalanyl-L-prolyl-[(4-aminomethyl-2-thienyl)methyl]amide.HCl] had a Ki of 0.073 nM. The molecule `CS(=O)(=O)N[C@@H](C(=O)N1CCC[C@H]1C(=O)NCc1csc(C(=N)N)c1)C(c1ccccc1)c1ccccc1` [Example 16, N-methylsulfonyl-D-diphenylalanyl-L-prolyl-[(5-amidino-3-thienyl)methyl]amide.TFA] displayed a Ki of 0.045 nM. Then `CS(=O)(=O)N[C@@H](C(=O)N1CCC[C@H]1C(=O)NCc1csc(C(=N)NN)c1)C(c1ccccc1)c1ccccc1` [Example 17, N-methylsulfonyl-D-diphenylalanyl-L-prolyl-[(5-amidrazono-3-thienyl)methyl]amide.TFA], with 0.41 nM; and `CS(=O)(=O)N[C@@H](C(=O)N1CCC[C@H]1C(=O)NCc1csc(CN)c1)C(c1ccccc1)c1ccccc1` [Example 18, N-methylsulfonyl-D-diphenylalanyl-L-prolyl-[(5-aminomethyl-3-thienyl)methyl]amide.TFA], with 6.21 nM. In the case of `N=C(N)c1ccc(CNC(=O)[C@@H]2CCCN2C(=O)[C@H](NS(=O)(=O)NC2CCCCC2)C(c2ccccc2)c2ccccc2)s1` [Example 20, N-cyclohexylsulfamoyl-D-diphenylalanyl-L-prolyl-[(5-amidino-2-thienyl)methyl]amide.TFA] it was 0.011 nM; in that of `C=CCOC(=O)N[C@@H](C(=O)N1CCC[C@H]1C(=O)NCc1ccc(C(=N)N)s1)C(c1ccccc1)c1ccccc1` [Example 21, N-allyloxycarbonyl-D-diphenylalanyl-L-prolyl-[(5-amidino-2-thienyl)methyl]amide.TFA], 0.017 nM. Molecule `CS(=O)(=O)N[C@H](CC1CCCCC1)C(=O)N1CCC[C@H]1C(=O)NCc1ccc(C(=N)N)s1` [Example 22, N-methylsulfonyl-D-cyclohexylalanyl-L-prolyl-[(5-amidino-2-thienyl)methyl]amide.TFA] returned a Ki of 0.02 nM. `N=C(N)c1ccc(CNC(=O)[C@@H]2CCCN2C(=O)[C@@H](CC2CCCCC2)NS(=O)(=O)Cc2ccccc2)s1` [Example 23, N-benzylsulfonyl-D-cyclohexylalany-L-prolyl-[(5-amidino-2-thienyl)methyl]amide.TFA]: the inhibition constant (Ki) was determined as 0.03 nM. On to `N=C(N)c1ccc(CNC(=O)[C@@H]2CCCN2C(=O)[C@@H](CC2CCCCC2)NS(=O)(=O)NC2CCCCC2)s1` [Example 24, N-cyclohexylsulfamoyl-D-cyclohexylalanyl-L-prolyl-[(5-amidino-2-thienyl)methyl]amide.TFA], for which the inhibition constant Ki was 0.024 nM.

As for `CNS(=O)(=O)N[C@H](CC1CCCCC1)C(=O)N1CCC[C@H]1C(=O)NCc1ccc(C(=N)N)s1` [Example 25, N-methylsulfamoyl-D-cyclohexylalanyl-L-prolyl-[(5-amidino-2-thienyl)methyl]amide.TFA], the affinity corresponds to a Ki of 0.053 nM. In turn, `CS(=O)(=O)N[C@@H](C(=O)N1CCC[C@H]1C(=O)NCc1csc(C(=N)N)c1)C1CCCCC1` [Example 26, N-methylsulfonyl-D-cyclohexylglycinyl-L-prolyl-[(5-amidino-3-thienyl)methyl]amide.TFA] yielded an inhibitory constant (Ki) of 4.6 nM. Consider `COC(=O)N[C@@H](C(=O)N1CCC[C@H]1C(=O)NCc1csc(C(=N)N)c1)C1CCCCC1` [Example 27, N-methoxycarbonyl-D-cyclohexylglycinyl-L-prolyl-[(5-amidino-3-thienyl)methyl]amide.TFA], for which the affinity, expressed as Ki, was 13.7 nM. `CC(C)(C)OC(=O)CN[C@@H](C(=O)N1CCC[C@H]1C(=O)NCc1ccc(C(=N)N)s1)C(c1ccccc1)c1ccccc1` [Example 28, N-(t-butoxycarbonyl)methyl-D-diphenylalanyl-L-prolyl-[(5-amidino-2-thienyl)methyl]amide.2AcOH] yielded an inhibitory constant (Ki) of 0.062 nM. `CN(CC(=O)O)[C@@H](C(=O)N1CCC[C@H]1C(=O)NCc1ccc(C(=N)N)s1)C(c1ccccc1)c1ccccc1` [Example 30, N-methyl-N-carboxymethyl-D-diphenylalanyl-L-prolyl-[(5-amidino-2-thienyl)methyl]amide.2TFA]: affinity was put at a Ki of 0.003 nM. As for `N=C(N)c1ccc(CNC(=O)[C@@H]2CCCN2C(=O)[C@H](NS(=O)(=O)O)C(c2ccccc2)c2ccccc2)s1` [Example 31, N-hydroxysulfonyl-D-diphenylalanyl-L-prolyl-[(5-amidino-2-thienyl)methyl]amide.TFA], the Ki is 0.1 nM.

Molecule `CS(=O)(=O)N[C@@H](C(=O)N1CC[C@H]1C(=O)NCc1ccc(C(=N)N)s1)C(c1ccccc1)c1ccccc1` [Example 32, N-methylsulfonyl-D-diphenylalanyl-L-azetidine-2-carboxyl-[(5-amidino-2-thienyl)methyl]amide.TFA] came in with a Ki of 0.053 nM.

Take `Cc1sc(CNC(=O)[C@@H]2CCCN2C(=O)[C@H](NS(C)(=O)=O)C(c2ccccc2)c2ccccc2)cc1C(=N)N` [Example 33, N-methylsulfonyl-D-diphenylalanyl-L-prolyl-[(4-amidino-5-methyl-2-thienyl)methyl]amide.TFA]: the inhibition constant (Ki) was 0.12 nM.
